Results taken from ChEMBL document CHEMBL3044826, “Design, synthesis and biological evaluation of some novel substituted 2-mercapto-3-phenethylquinazolines as antitumor agents” (2013).

Columns and labels:
Type in all cases: functional
EKVX = experiment: Cytotoxicity against Homo sapiens (human) EKVX cells assessed as growth inhibition at 10 uM after 48 hr by coulter counter analysis; conditions: read-out: GI
Malme-3M = experiment: Cytotoxicity against Homo sapiens (human) MALME-3M cells assessed as growth inhibition at 10 uM after 48 hr by coulter counter analysis; conditions: read-out: GI
CAKI-1 = experiment: Cytotoxicity against Homo sapiens (human) Caki1 cells assessed as growth inhibition at 10 uM after 48 hr by coulter counter analysis; conditions: CAKI-1, 48 h, read-out: GI
SNB-75 = experiment: Cytotoxicity against Homo sapiens (human) SNB75 cells assessed as growth inhibition at 10 uM after 48 hr by coulter counter analysis; conditions: SNB-75, 48 h, read-out: GI
SF-268 = experiment: Cytotoxicity against Homo sapiens (human) SF268 cells assessed as growth inhibition at 10 uM after 48 hr by coulter counter analysis; conditions: SF-268, 48 h, read-out: GI
SF-539 = experiment: Cytotoxicity against Homo sapiens (human) SF539 cells assessed as growth inhibition at 10 uM after 48 hr by coulter counter analysis; conditions: SF-539, 48 h, read-out: GI
UACC-62 = experiment: Cytotoxicity against Homo sapiens (human) UACC62 cells assessed as growth inhibition at 10 uM after 48 hr by coulter counter analysis; conditions: UACC-62, 48 h, read-out: GI
SW-620 = experiment: Cytotoxicity against Homo sapiens (human) SW620 cells assessed as growth inhibition at 10 uM after 48 hr by coulter counter analysis; conditions: SW-620, 48 h, read-out: GI
SF-295 = experiment: Cytotoxicity against Homo sapiens (human) SF295 cells assessed as growth inhibition at 10 uM after 48 hr by coulter counter analysis; conditions: SF-295, 48 h, read-out: GI
HOP-62 = experiment: Cytotoxicity against Homo sapiens (human) HOP62 cells assessed as growth inhibition at 10 uM after 48 hr by coulter counter analysis; conditions: HOP-62, 48 h, read-out: GI
SN12C = experiment: Cytotoxicity against Homo sapiens (human) SN12C cells assessed as growth inhibition at 10 uM after 48 hr by coulter counter analysis; conditions: read-out: GI
OVCAR-5 = experiment: Cytotoxicity against Homo sapiens (human) OVCAR5 cells assessed as growth inhibition at 10 uM after 48 hr by coulter counter analysis; conditions: OVCAR-5, 48 h, read-out: GI
HCC 2998 = experiment: Cytotoxicity against Homo sapiens (human) HCC2998 cells assessed as growth inhibition at 10 uM after 48 hr by coulter counter analysis; conditions: HCC 2998, 48 h, read-out: GI
OVCAR-8 = experiment: Cytotoxicity against Homo sapiens (human) OVCAR8 cells assessed as growth inhibition at 10 uM after 48 hr by coulter counter analysis; conditions: OVCAR-8, 48 h, read-out: GI
MDA-MB-231 = experiment: Cytotoxicity against Homo sapiens (human) MDA-MB-231 cells assessed as growth inhibition at 10 uM after 48 hr by coulter counter analysis; conditions: MDA-MB-231, 48 h, read-out: GI
TK-10 = experiment: Cytotoxicity against Homo sapiens (human) TK10 cells assessed as growth inhibition at 10 uM after 48 hr by coulter counter analysis; conditions: TK-10, 48 h, read-out: GI
KM12 = experiment: Cytotoxicity against Homo sapiens (human) KM12 cells assessed as growth inhibition at 10 uM after 48 hr by coulter counter analysis; conditions: KM12, 48 h, read-out: GI
SK-MEL-28 = experiment: Cytotoxicity against Homo sapiens (human) SK-MEL-28 cells assessed as growth inhibition at 10 uM after 48 hr by coulter counter analysis; conditions: SK-MEL-28, 48 h, read-out: GI
U-251 = experiment: Cytotoxicity against Homo sapiens (human) U251 cells assessed as growth inhibition at 10 uM after 48 hr by coulter counter analysis; conditions: U-251, 48 h, read-out: GI
HCT-116 = experiment: Cytotoxicity against Homo sapiens (human) HCT116 cells assessed as growth inhibition at 10 uM after 48 hr by coulter counter analysis; conditions: HCT-116, 48 h, read-out: GI
HT-29 = experiment: Cytotoxicity against Homo sapiens (human) HT-29 cells assessed as growth inhibition at 10 uM after 48 hr by coulter counter analysis; conditions: HT-29, 48 h, read-out: GI
[1] = Cytotoxicity against Homo sapiens (human) NCI-ADR-RES cells assessed as growth inhibition at 10 uM after 48 hr by coulter counter analysis; conditions: read-out: GI
HCT-15 = experiment: Cytotoxicity against Homo sapiens (human) HCT15 cells assessed as growth inhibition at 10 uM after 48 hr by coulter counter analysis; conditions: HCT-15, 48 h, read-out: GI
LOX IMVI = experiment: Cytotoxicity against Homo sapiens (human) LOXIMVI cells assessed as growth inhibition at 10 uM after 48 hr by coulter counter analysis; conditions: read-out: GI
M14 = experiment: Cytotoxicity against Homo sapiens (human) M14 cells assessed as growth inhibition at 10 uM after 48 hr by coulter counter analysis; conditions: M14, 48 h, read-out: GI
A549 = experiment: Cytotoxicity against Homo sapiens (human) A549 cells assessed as growth inhibition at 10 uM after 48 hr by coulter counter analysis; conditions: A549, 48 h, read-out: GI
MDA-MB-468 = experiment: Cytotoxicity against Homo sapiens (human) MDA-MB-468 cells assessed as growth inhibition at 10 uM after 48 hr by coulter counter analysis; conditions: MDA-MB-468, 48 h, read-out: GI
ACHN = experiment: Cytotoxicity against Homo sapiens (human) ACHN cells assessed as growth inhibition at 10 uM after 48 hr by coulter counter analysis; conditions: read-out: GI
OVCAR-4 = experiment: Cytotoxicity against Homo sapiens (human) OVCAR4 cells assessed as growth inhibition at 10 uM after 48 hr by coulter counter analysis; conditions: OVCAR-4, 48 h, read-out: GI
RXF 393 = experiment: Cytotoxicity against Homo sapiens (human) RXF393 cells assessed as growth inhibition at 10 uM after 48 hr by coulter counter analysis; conditions: RXF 393, 48 h, read-out: GI
SK-MEL-5 = experiment: Cytotoxicity against Homo sapiens (human) SK-MEL-5 cells assessed as growth inhibition at 10 uM after 48 hr by coulter counter analysis; conditions: SK-MEL-5, 48 h, read-out: GI
NCI-H23 = experiment: Cytotoxicity against Homo sapiens (human) NCI-H23 cells assessed as growth inhibition at 10 uM after 48 hr by coulter counter analysis; conditions: NCI-H23, 48 h, read-out: GI
MDA-MB-435 = experiment: Cytotoxicity against Homo sapiens (human) MDA-MB-435 cells assessed as growth inhibition at 10 uM after 48 hr by coulter counter analysis; conditions: MDA-MB-435, 48 h, read-out: GI
NCI-H322M = experiment: Cytotoxicity against Homo sapiens (human) NCI-H322M cells assessed as growth inhibition at 10 uM after 48 hr by coulter counter analysis; conditions: read-out: GI

Compound | inhibition of growth at 10 µM (EKVX) [%] | inhibition of growth at 10 µM (Malme-3M) [%] | inhibition of growth at 10 µM (CAKI-1) [%] | inhibition of growth at 10 µM (SNB-75) [%] | inhibition of growth at 10 µM (SF-268) [%] | inhibition of growth at 10 µM (SF-539) [%] | inhibition of growth at 10 µM (UACC-62) [%] | inhibition of growth at 10 µM (SW-620) [%] | inhibition of growth at 10 µM (SF-295) [%] | inhibition of growth at 10 µM (HOP-62) [%] | inhibition of growth at 10 µM (SN12C) [%] | inhibition of growth at 10 µM (OVCAR-5) [%] | inhibition of growth at 10 µM (HCC 2998) [%] | inhibition of growth at 10 µM (OVCAR-8) [%] | inhibition of growth at 10 µM (MDA-MB-231) [%] | inhibition of growth at 10 µM (TK-10) [%] | inhibition of growth at 10 µM (KM12) [%] | inhibition of growth at 10 µM (SK-MEL-28) [%] | inhibition of growth at 10 µM (U-251) [%] | inhibition of growth at 10 µM (HCT-116) [%] | other results
O=C(CSc1nc2ccccc2c(=O)n1CCc1ccccc1)c1ccccc1 | 18 | 14 | 22 | 18 | < 10 | < 10 | 16 | < 10 | 18 | < 10 | < 10 | < 10 | < 10 | 15 | 11 | < 10 | < 10 | < 10 | 11 | 19 | inhibition of growth at 10 µM (HT-29): < 10%; inhibition of growth at 10 µM [1]: < 10%; inhibition of growth at 10 µM (HCT-15): < 10%; inhibition of growth at 10 µM (LOX IMVI): < 10%; inhibition of growth at 10 µM (M14): < 10%; inhibition of growth at 10 µM (A549): 18%; inhibition of growth at 10 µM (MDA-MB-468): 14%; inhibition of growth at 10 µM (ACHN): < 10%; inhibition of growth at 10 µM (OVCAR-4): < 10%; inhibition of growth at 10 µM (RXF 393): < 10%; inhibition of growth at 10 µM (SK-MEL-5): < 10%; inhibition of growth at 10 µM (NCI-H23): < 10%; inhibition of growth at 10 µM (MDA-MB-435): < 10%; inhibition of growth at 10 µM (NCI-H322M): < 10%
O=c1c2ccccc2[nH]c(=S)n1CCc1ccccc1 | 18 | < 10 | < 10 | < 10 | < 10 | < 10 | 20 | < 10 | 13 | 26 | < 10 | < 10 | < 10 | < 10 | < 10 | < 10 | < 10 | < 10 | < 10 | 18 | inhibition of growth at 10 µM (HT-29): < 10%; inhibition of growth at 10 µM [1]: < 10%; inhibition of growth at 10 µM (HCT-15): < 10%; inhibition of growth at 10 µM (LOX IMVI): < 10%; inhibition of growth at 10 µM (M14): < 10%; inhibition of growth at 10 µM (A549): < 10%; inhibition of growth at 10 µM (MDA-MB-468): 22%; inhibition of growth at 10 µM (ACHN): < 10%; inhibition of growth at 10 µM (OVCAR-4): < 10%; inhibition of growth at 10 µM (RXF 393): < 10%; inhibition of growth at 10 µM (SK-MEL-5): 13%; inhibition of growth at 10 µM (NCI-H23): < 10%; inhibition of growth at 10 µM (MDA-MB-435): < 10%; inhibition of growth at 10 µM (NCI-H322M): < 10%
O=c1c2ccccc2nc(SCCN2CCCCC2)n1CCc1ccccc1 | 30 | < 10 | 27 | 13 | < 10 | < 10 | < 10 | 11 | 13 | 11 | < 10 | 12 | < 10 | < 10 | 34 | < 10 | < 10 | < 10 | 14 | 27 | inhibition of growth at 10 µM (HT-29): 70%; inhibition of growth at 10 µM [1]: 13%; inhibition of growth at 10 µM (HCT-15): 20%; inhibition of growth at 10 µM (LOX IMVI): 19%; inhibition of growth at 10 µM (M14): < 10%; inhibition of growth at 10 µM (A549): 13%; inhibition of growth at 10 µM (MDA-MB-468): < 10%; inhibition of growth at 10 µM (ACHN): < 10%; inhibition of growth at 10 µM (OVCAR-4): 14%; inhibition of growth at 10 µM (RXF 393): 19%; inhibition of growth at 10 µM (SK-MEL-5): 24%; inhibition of growth at 10 µM (NCI-H23): 23%; inhibition of growth at 10 µM (MDA-MB-435): < 10%; inhibition of growth at 10 µM (NCI-H322M): < 10%
